Experimental data from paper PMC8705538, “Discovery of SARS-CoV-2 Nsp14 and Nsp16 Methyltransferase Inhibitors by High-Throughput Virtual Screening” (Pharmaceuticals, 2021).

Key:
SARS-CoV-2 nsp14 = SARS-CoV-2 nsp14 (Severe acute respiratory syndrome coronavirus 2, UniProt P0DTD1); assay: biochemical; details: 100 μM
SARS-CoV-2 nsp16/nsp10 = SARS-CoV-2 nsp16/nsp10 (Severe acute respiratory syndrome coronavirus 2, UniProt P0DTD1); assay: biochemical; details: 100 μM

| Structure (SMILES) | Percent inhibition at 100 μM, nsp14 (SARS-CoV-2 nsp14) [%] | Percent inhibition at 100 μM, nsp16 (SARS-CoV-2 nsp16/nsp10) [%] |
| --- | --- | --- |
| O=C(Cc1csc(SCC(=O)c2ccccc2)n1)Nc1ccccc1 [Compound 005-296-365] | 27 ±2 | -17 ±4 |
| CCOc1ccccc1OCC(=O)N1CCCC(c2nc3ccccc3s2)C1 (stereo not drawn) [Compound 005-679-672] | 6 ±0 | -59 ±2 |
| O=C(CCn1cncn1)N1CCC(c2nc3ccccc3s2)CC1 [Compound 009-436-708] | 2 ±1 | -114 ±6 |
| O=C(CCn1cncn1)N1CCCC1c1nc2ccccc2s1 (stereo not drawn) [Compound 009-447-345] | 2 ±0 | 1 ±1 |
| Cc1nc(CC(=O)N2CCCC(c3nc4ccccc4s3)C2)cs1 (stereo not drawn) [Compound 021-760-906] | 10 ±2 | 28 ±6 |
| Cn1nccc1CCC(=O)N1CCCC(c2nc3ccccc3s2)C1 (stereo not drawn) [Compound 042-575-680] | 8 ±1 | 33 ±9 |
| O=C(CCCn1cncn1)N1CCCC(c2nc3ccccc3s2)C1 (stereo not drawn) [Compound 045-938-897] | 7 ±2 | -29 ±5 |
| Cc1csc(C2CCCN(C(=O)CCn3cnc4c(N)ncnc43)C2)n1 (stereo not drawn) [Compound 046-114-939] | 15 ±4 | 37 ±13 |
| Cn1cnn(CCC(=O)N2CCCC(c3nc4ccccc4s3)C2)c1=O (stereo not drawn) [Compound 046-705-372] | 5 ±3 | 15 ±8 |
| Cn1cc(CCC(=O)N2CCCC(c3nc4ccccc4s3)C2)cn1 (stereo not drawn) [Compound 046-706-934] | 5 ±3 | -113 ±16 |
| O=C(CCc1cncnc1)N1CCCC(c2nc3ccccc3s2)C1 (stereo not drawn) [Compound 046-723-388] | 5 ±3 | -45 ±13 |
| O=C(O)CCC(=O)Nc1nc2n(n1)C(c1ccccc1)CC(=O)N2 (stereo not drawn) [ZINC000000095711] | -16 ±0 | -77 ±13 |
| Nc1ncnc2c1ncn2CC(O)CO (stereo not drawn) [ZINC000000370772] | -9 ±12 | -34 ±9 |
| O=C(CC1(O)C(=O)N(Cc2ccc3c(c2)OCO3)c2ccccc21)c1ccc(F)cc1 (stereo not drawn) [ZINC000000783765] | -10 ±3 | -3 ±4 |
| CC(=O)Nc1ccn(C2OC(CO)C(O)C2O)c(=O)n1 (stereo not drawn) [ZINC000001078602] | -15 ±5 | -9 ±1 |
| NS(=O)(=O)c1ccc(NC2=NC(=O)C(CC(=O)O)S2)cc1 (stereo not drawn) [ZINC000001797008] | 0 ±2 | -35 ±10 |
| O=C(Nc1ccc(N2CCOCC2)cc1)c1oc2ccccc2c1CSc1nnc[nH]1 [ZINC000003404544] | 3 ±2 | 6 ±8 |
| CC1=C(C(=O)O)N2C(=O)C(NC(=O)C(N)c3ccc(O)cc3)C2SC1 (stereo not drawn) [ZINC000003830391] | -18 ±6 | -8 ±1 |
| CCOc1c(Cl)cc(C(=O)Nc2cccc(C(=O)O)c2)cc1Cl [ZINC000004649202] | -1 ±3 | 14 ±5 |
| NC(=O)Cn1cnc2c(cnn2CCO)c1=O [ZINC000004940485] | 2 ±0 | 6 ±6 |
| NS(=O)(=O)c1ccc(NC(=O)COC(=O)c2n[nH]c3ccccc23)cc1 [ZINC000005360401] | -15 ±7 | 3 ±1 |
| O=C(Cc1nnc(O)c2ccccc12)NCC(O)c1ccccc1 (stereo not drawn) [ZINC000009340377] | 5 ±4 | 2 ±5 |
| Cc1ccc(NC(=O)Cn2c(=O)n(CC(=O)NCc3ccco3)c(=O)c3ccccc32)cc1C [ZINC000009617688] | 10 ±6 | -8 ±4 |
| CCN(Cc1ccncc1)C(=O)CC1C(=O)NCCN1CCCc1ccccc1 (stereo not drawn) [ZINC000011821342] | 5 ±5 | 17 ±11 |

| Structure (SMILES) | Percent inhibition at 100 μM, nsp14 (SARS-CoV-2 nsp14) [%] | Percent inhibition at 100 μM, nsp16 (SARS-CoV-2 nsp16/nsp10) [%] |
| --- | --- | --- |
| CC(C)Cn1c(CNC(=O)c2ccccc2C(F)(F)F)nnc1SCc1ccncc1 [ZINC000012152850] | 2 ±8 | 19 ±6 |
| COc1ccc(CCNC(=O)C2C3C=CC4(CN(c5ccc6c(c5)OCO6)C(=O)C24)O3)cc1 (stereo not drawn) [ZINC000012895535] | 5 ±2 | -15 ±6 |
| CC[C@H](C)[C@H](N)C(=O)NS(=O)(=O)OC[C@H]1O[C@@H](n2cnc3c(N)ncnc32)[C@H](O)[C@@H]1O [ZINC000013488353] | 8 ±5 | 34 ±6 |
| COc1ccc(C2=NN(C(=O)CCc3ccc4c(c3)OCO4)C(O)(C(F)(F)F)C2)cc1 (stereo not drawn) [ZINC000016448507] | 9 ±4 | 11 ±5 |
| COc1ccc(N2C(=O)CC(c3c(C)[nH]n(-c4nc5ccccc5s4)c3=O)C2=O)cc1 (stereo not drawn) [ZINC000018085229] | 11 ±6 | 17 ±6 |
| CC(C)CC(C(=O)OCC(=O)Nc1cccc(Cl)c1)N1C(=O)C2CC=CCC2C1=O (stereo not drawn) [ZINC000019078629] | 8 ±3 | 37 ±9 |
| O=C(CCc1c[nH]c2ccccc12)N1CCCC1c1ccc[nH]1 (stereo not drawn) [ZINC000019688789] | 2 ±0 | -10 ±1 |
| O=C(CP(=O)(O)O)N=c1[nH]c2ccc(Cl)cc2s1 [ZINC000020502712] | 7 ±6 | 17 ±7 |
| COc1cccc(C2CC(O)=Nc3c2c(C)nn3-c2ncnc3[nH]cnc23)c1 (stereo not drawn) [ZINC000020745418] | -8 ±5 | -7 ±2 |
| O=C(NCc1cccnc1)C1CC(NCc2c(F)cccc2F)CN1Cc1ccccc1 (stereo not drawn) [ZINC000020999776] | -2 ±4 | 8 ±5 |
| Cn1c(=O)c(=O)n(CC(=O)NCCN(CCc2ccccc2)Cc2ccco2)c2ccccc21 [ZINC000021649685] | 10 ±9 | 7 ±4 |
| Nc1ncnc2c1ncn2[C@@H]1O[C@H](COS(=O)(=O)NC(=O)c2ccccc2O)[C@@H](O)[C@H]1O [ZINC000028567519] | 28 ±2 | 14 ±3 |
| Cc1nn(C)c2ncc(NC(=O)c3ccccc3-c3ncc(-c4ccc(F)cc4)o3)cc12 [ZINC000032754717] | 14 ±6 | -24 ±9 |
| C=CCn1c(=O)c(=O)n(CC(=O)NCCN2CCN(c3cc(Cl)ccc3C)CC2)c2ccccc21 [ZINC000033268761] | 9 ±3 | 32 ±7 |
| CC1(O)Cc2n[nH]c(O)c2C(c2ccccc2)C1 (stereo not drawn) [ZINC000035326963] | 4 ±8 | -2 ±6 |
| O=C(O)c1cc(CN2CC[C@@H](c3ccc4ccccc4c3)[C@H](O)C2)ccc1O [ZINC000065452571] | -3 ±8 | -2 ±5 |
| Cc1ccc(Oc2ncccc2CNC(=O)c2cnc(O)cc2O)cn1 [ZINC000067754517] | 11 ±3 | 39 ±8 |
| CC(=O)c1cccc(OCc2cc(C(=O)NCC(N)=O)n[nH]2)c1 [ZINC000067920483] | 2 ±2 | -1 ±3 |
| CN(C)c1nc2c(c(N(C)C)n1)CCN(C(=O)[C@@H](N)Cc1ccc(O)cc1)C2 [ZINC000071682020] | 12 ±5 | 9 ±8 |
| CN(C)c1nc2c(c(=O)[nH]1)CCN(C(=O)c1n[nH]cc1Cl)C2 [ZINC000072172639] | -1 ±2 | 29 ±5 |
| O=C(CC1(C(=O)O)CC(c2ccc(F)cc2)=NO1)Nc1cccc(C(=O)O)c1 (stereo not drawn) [ZINC000072406141] | 14 ±7 | 31 ±8 |
| O=C(c1ccc(Cn2ccnc2)o1)N1CCc2[nH]c3ccc(Cl)cc3c2C1 [ZINC000072429175] | 0 ±4 | 6 ±5 |
| Nc1nc2c(c(=O)[nH]1)CC(CCc1ccc(C(=O)NC(CCC(=O)O)C(=O)O)cc1)CN2 (stereo not drawn) [ZINC000077301924] | 5 ±6 | 15 ±10 |
| Cn1nc(CC(=O)NCCCc2nnc3ccccn23)c2ccccc2c1=O [ZINC000095478169] | -6 ±2 | -53 ±8 |
